{"source": "patent US20210009673A1", "about": "“METHODS FOR REGULATING BREAST CANCERS” (priority 2018, published 2021)", "key": {"[1]": {"system": "β-catenin", "test": "tyrosine phosphorylation of β-catenin in PTN-stimulated U87MG cells", "assay_type": "cell-based, human", "conditions": "U87MG cells preincubated with inhibitor; 50 ng PTN/ml", "method": "FIG. 1: FIG. 1 illustrates in (A) PTN stimulation of tyrosine phosphorylation of β-catenin in cells that express RPTPβ/ζ and ALK. COS7 cells transiently expressing ALK and RPTPβ/ζ were stimulated with 10 ng PTN/ml. Cell lysates were prepared and used to immunoprecipitate β-catenin. The immunoprecipitates were analyzed in Western blots probed with anti-phosphotyrosine antibodies. Lane 1, cells transfected with ALK that were not stimulated with PTN. Lane 2, cells transfected with ALK stimulated with PTN. Lane 3, cells transfected with empty vector not stimulated with PTN. Lane 4, cells transfected with empty vector stimulated with PTN. […] The immunoprecipitates were analyzed in Western blots probed with anti-phosphotyrosine antibodies. […] Cell lysates were used to immunoprecipitate β-catenin and the immunoprecipitates were analyzed in Western blots probed with anti-phospho-tyrosine antibodies and reprobed with anti-β-catenin antibodies. […] MCF-7 cells that stably express EGFR/RPTPβ/ζ not transfected with ALK were analyzed as above. […] Lysates of MCF-7 cells and lysates of MCF-7 cells stimulated with EGF were used to immunoprecipitate β-catenin and the immunoprecipitates were analyzed in Western blots probed with anti-phospho-tyrosine antibodies and separately with anti-β-catenin antibodies. […]"}, "[2]": {"system": "Akt", "test": "phosphorylation of Akt in PTN-stimulated HUVS cells", "assay_type": "cell-based, human", "conditions": "cells preincubated with EGFR inhibitor; PTN 2-20 minutes", "method": "FIG. 11: FIG. 11 illustrates: human umbilical vein stromal cells not stimulated or stimulated with 50 ng/ml of PTN for 2, 5, 10 or 20 minutes were used to prepare cell lysates that were analyzed in Western blots probed with anti-phospho threonine 308 Akt (panel A), anti-phospho serine 473 Akt (panel B), anti-phospho-serine 9 GSK3β (panel C), anti-phospho-serine 33, 37 and […] β-catenin (panel D) or anti-actin antibodies (panel E). Akt was immunoprecipitated from those lysates using anti-Akt antibodies, incubated with a fusion peptide containing the 20 N-terminal amino acids of GSK3β and analyzed in Western-blots probed using anti-phospho-serine 9 GSK3β antibodies (panel F).\nTo pursue this pathway of nuclear import of β-catenin, HUVS cells were stimulated with PTN (50 ng/ml), lysed, and analyzed in Western blots probed with anti-phosphothreonine 308 Akt or anti-phosphoserine 473 Akt antibodies (FIG. 11, panel A and B). […]\nThe association of adaptor proteins that associate with specific phosphorylated sites in activated EGFR are responsible for the activation of phosphatidyl-inositol 3-kinase (PI3K). […] The cells were stimulated with PTN for 2, 5, 10, and 20 minutes, cell lysates were prepared, and the lysates were analyzed in Western blots probed with anti-phospho-Akt (Ser473), anti-phospho-GSKβ (Ser9), and anti-phospho-β-catenin (Thr42) antibodies. […]"}, "[3]": {"system": "β-catenin", "test": "ubiquitination of β-catenin in HUVS cells (Rad23 capture)", "assay_type": "cell-based, human", "conditions": "PTN-stimulated cells pre-incubated with proteasome inhibitor", "method": "FIG. 12: FIG. 12 illustrates: human umbilical vein stromal cells not stimulated (lane 1) or stimulated with 50 ng/ml of PTN for 15 (lane 2), or 30 minutes (lane 3) were used to prepare cell lysates that were incubated with Rad23-conjugated agarose beads to pull-down ubiquitinated proteins and analyzed in Western-blots probed with anti-β-catenin antibodies (upper panel) and reprobed with anti-ubiquitin antibodies (lower panel). Cells pre-incubated with LY294002 were stimulated with PTN for 15 minutes (lane 4). Cells pre-incubated with lactacystin were stimulated with PTN for 15 minutes (lane 5).\nHuman umbilical vein stromal cells were lysed in a buffer prepared with 50 mM Tris, pH 7.2, 150 mM NaCl pH 7.5, 1% NP40, 0.25% sodium deoxicholate, Complete EDTA-free Protease Inhibitor Cocktail and 2 mM sodium orthovanadate. […] The beads were washed 4 times with lysis buffer and analyzed using Western blots.\nβ-catenin is rapidly degraded through the ubiquitin proteasome proteolytic pathway, thereby setting steady state levels of β-catenin by balancing its degradation with new synthesis of this key regulatory protein. […] Proteins captured with Rad23 Sepharose were eluted and analyzed in Western blots probed with anti-β-catenin antibodies (FIG. 12, upper panel) and the blots were reprobed with anti-ubiquitin antibodies (FIG. 12, lower panel). […]"}, "[4]": {"system": "MDA-MB-231 cells", "test": "growth of MDA-MB-231 breast cancer cells in culture (viable cell count)", "assay_type": "cell-based, human", "method": "(§1) FIG. 22: FIG. 22 illustrates: in (A), the c-met/ALK dual inhibitor PF2341066 blocks growth of MDA-MB-231 cells. MDA-MB-231 breast cancer cells were treated with 1 nM, 10 nM, 100 nM, and 1 μM PF2341066, the number of viable cells was counted for ten days, and represented as average with standard deviation. In (B), The c-met/ALK dual inhibitor PF2341066 blocks growth of T47D cells. T47D breast cancer cells were treated with 1 nM, 10 nM, 100 nM, and 1 μM PF2341066, the number of viable cells was counted for ten days, and represented as average with standard deviation. In (C), The ALK inhibitor PF2341066 delays MDA-MB-231 cell growth as tumors in flanks of nude mice. MDA-MB-231 cells were injected in flanks of nude mice. The mice were divided in two groups, which were given 50 mg/kg PF2341066 daily by oral gavage or an equal volume of DMSO as control. Tumor size was measured daily and is represented as average tumor burden in each group.\n(§2) The MDA-MB-231 (FIG. 22A) and T47D (FIG. 22B) cells were then treated with the ALK inhibitor PF2341066.\n(§3) MDA-MB-231, MCF-7, and T47D cells were obtained from American Tissue Collection Center (ATCC) and grown in DMEM supplemented with 10% fetal bovine serum (FBS) and 1% penicillin/streptomycin at 37° C. in a 5% CO2 atmosphere. […]"}, "[5]": {"system": "MDA-MB-231 cell xenograft", "test": "MDA-MB-231 xenograft growth in flanks of nude mice", "assay_type": "in vivo", "conditions": "50 mg/kg daily oral gavage", "method": "as §1, with “group. […]” for “group.”\nMale athymic nude mice (8 weeks old, Cby.Cg-Foxn1nu) were used. […] The sites of injection were observed daily for tumor growth beginning 1 day after injection and tumor length (L) and width (W) were measured, and tumor volume was estimate using the formula (LXW2)/2."}, "[6]": {"system": "T47D cells", "test": "growth of T47D breast cancer cells in culture (viable cell count)", "assay_type": "cell-based, human", "method": "as §1, §2, §3"}, "[7]": {"system": "β-catenin", "test": "tyrosine phosphorylation of β-catenin in MCF-7-EGFR/RPTPβ/ζ cells expressing ALK", "assay_type": "cell-based", "method": "FIG. 1: FIG. 1 illustrates in (A) PTN stimulation of tyrosine phosphorylation of β-catenin in cells that express RPTPβ/ζ and ALK. COS7 cells transiently expressing ALK and RPTPβ/ζ were stimulated with 10 ng PTN/ml. Cell lysates were prepared and used to immunoprecipitate β-catenin. The immunoprecipitates were analyzed in Western blots probed with anti-phosphotyrosine antibodies. Lane 1, cells transfected with ALK that were not stimulated with PTN. Lane 2, cells transfected with ALK stimulated with PTN. Lane 3, cells transfected with empty vector not stimulated with PTN. Lane 4, cells transfected with empty vector stimulated with PTN. In (B), ALK and RPTPβ/ζ, but not Src, are necessary for PTN to stimulate tyrosine phosphorylation of activation of β-catenin. U87MG cells and U87MG cells that had been transfected with an shRNA targeting either RPTPβ/ζ or ALK or preincubated with the src inhibitor PP2 were stimulated with 50 ng PTN/ml or not (control) and cell lysates used to immunoprecipitate β-catenin. The immunoprecipitates were analyzed in Western blots probed with anti-phosphotyrosine antibodies. […] Cell lysates were used to immunoprecipitate β-catenin and the immunoprecipitates were analyzed in Western blots probed with anti-phospho-tyrosine antibodies and reprobed with anti-β-catenin antibodies. […] MCF-7 cells that stably express EGFR/RPTPβ/ζ not transfected with ALK were analyzed as above. […] Lysates of MCF-7 cells and lysates of MCF-7 cells stimulated with EGF were used to immunoprecipitate β-catenin and the immunoprecipitates were analyzed in Western blots probed with anti-phospho-tyrosine antibodies and separately with anti-β-catenin antibodies. Lysates of MCF-7 cells transfected with ALK and stimulated with PTN, EGF or pervanadate were immunoprecipitated with anti-β-catenin antibodies and the immunoprecipitates were analyzed in Western blots probed with anti-phospho-tyrosine antibodies and separately with anti-β-catenin antibodies. […]"}, "[8]": {"system": "ALK", "test": "tyrosine phosphorylation of ALK in MCF-7-EGFR/RPTPβ/ζ cells", "assay_type": "cell-based", "conditions": "EGF at 1 minute and at 5 minutes"}}, "data": [{"molecule": "CC(C)(C)n1nc(-c2ccc(Cl)cc2)c2c(N)ncnc21", "note": "[PP2, reference compound]", "values": [{"measurement": "inhibition of PTN-stimulated tyrosine phosphorylation of β-catenin", "setting": "[1]", "value": "failed to inhibit"}]}, {"molecule": "COc1cc2ncnc(Nc3cccc(Cl)c3)c2cc1OC", "note": "[AG1478, reference compound]", "values": [{"measurement": "PTN-stimulated activation of Akt (phospho-Akt serine 473)", "setting": "[2]", "value": "effectively prevented"}]}, {"molecule": "CC(=O)N[C@@H](CSC(=O)[C@]1([C@@H](O)C(C)C)NC(=O)[C@H](C)[C@@H]1O)C(=O)O", "note": "[lactacystin, reference compound]", "values": [{"measurement": "ubiquitinated β-catenin levels", "setting": "[3]", "value": "remained at the level in HUVS cells not stimulated with PTN"}]}, {"molecule": "C[C@@H](Oc1cc(-c2cnn(C3CCNCC3)c2)cnc1N)c1c(Cl)ccc(F)c1Cl", "note": "[PF2341066]", "values": [{"measurement": "proliferation of MDA-MB-231 cells", "setting": "[4]; 1 nM-1 μM, ten days", "value": "dose-dependent block in proliferation"}, {"measurement": "growth of MDA-MB-231 cells", "setting": "[4]; 1 μM", "value": "effectively prevented growth"}, {"measurement": "reduction of tumor burden", "setting": "[5]; day 22", "value": "about 3.5 fold"}, {"measurement": "reduction of tumor burden", "setting": "[5]; end of the experiment", "value": "about 3 fold"}, {"measurement": "proliferation of T47D cells", "setting": "[6]; 1 nM-1 μM, ten days", "value": "dose-dependent block in proliferation"}, {"measurement": "reduction of T47D cell growth", "setting": "[6]; 1 μM", "value": "about 13 fold"}]}, {"molecule": "epidermal growth factor [EGF]", "values": [{"measurement": "increase in tyrosine phosphorylation of β-catenin", "setting": "[7]; 1 minute after stimulation with EGF", "value": "about 11 fold"}, {"measurement": "tyrosine phosphorylation of β-catenin", "setting": "[7]; 5 minutes after stimulation with EGF", "value": "Even higher levels"}, {"measurement": "tyrosine phosphorylation of ALK", "setting": "[8]", "value": "marked increase"}]}, {"molecule": "sodium pervanadate [reference compound]", "values": [{"measurement": "increase in tyrosine phosphorylation of β-catenin", "setting": "[7]; stimulated with sodium pervanadate", "value": "about 17 fold"}]}]}
